# In PubChem BioAssay AID1259407 (Chemical Carcinogenesis Research Information System (CCRIS), 2018):
# Active and inactive are the calls of the source. How the calls were made is not given here.
# System: CCRIS mutagenicity, Ames/micronucleus/aberration tests
# Assay: CCRIS mutagenicity studies
# [1] = Test System: AMES SALMONELLA TYPHIMURIUM, Strain/Indicator: TA98, Metabolic Activation: NONE, Method: PREINCUBATION
# [2] = Test System: AMES SALMONELLA TYPHIMURIUM, Strain/Indicator: TA100, Metabolic Activation: NONE, Method: PREINCUBATION
# [3] = Test System: AMES SALMONELLA TYPHIMURIUM, Strain/Indicator: TA1535, Metabolic Activation: NONE, Method: PREINCUBATION
# [4] = Test System: AMES SALMONELLA TYPHIMURIUM, Strain/Indicator: TA98, Metabolic Activation: NONE, Method: STANDARD PLATE
# [5] = Test System: AMES SALMONELLA TYPHIMURIUM, Strain/Indicator: TA1535, Metabolic Activation: NONE, Method: STANDARD PLATE
# [6] = Test System: AMES SALMONELLA TYPHIMURIUM, Strain/Indicator: TA1537, Metabolic Activation: NONE, Method: STANDARD PLATE
# [7] = Test System: AMES SALMONELLA TYPHIMURIUM, Strain/Indicator: TA100, Metabolic Activation: NONE, Method: STANDARD PLATE
smiles,measurement,setting,value
C=C(C)C(=O)OC(C)C,mutagenic call,"Test System: AMES SALMONELLA TYPHIMURIUM, Strain/Indicator: TA98, Metabolic Activation: HAMSTER, LIVER, S-9, AROCLOR 1254 (10%), Method: PREINCUBATION",inactive; negative
same,mutagenic call,[1],inactive; negative
same,mutagenic call,"Test System: AMES SALMONELLA TYPHIMURIUM, Strain/Indicator: TA98, Metabolic Activation: RAT, LIVER, S-9, AROCLOR 1254 (10%), Method: PREINCUBATION",inactive; negative
same,mutagenic call,"Test System: AMES SALMONELLA TYPHIMURIUM, Strain/Indicator: TA100, Metabolic Activation: HAMSTER, LIVER, S-9, AROCLOR 1254 (10%), Method: PREINCUBATION",inactive; negative
same,mutagenic call,[2],inactive; negative
same,mutagenic call,"Test System: AMES SALMONELLA TYPHIMURIUM, Strain/Indicator: TA100, Metabolic Activation: RAT, LIVER, S-9, AROCLOR 1254 (10%), Method: PREINCUBATION",inactive; negative
same,mutagenic call,"Test System: AMES SALMONELLA TYPHIMURIUM, Strain/Indicator: TA1535, Metabolic Activation: HAMSTER, LIVER, S-9, AROCLOR 1254 (10%), Method: PREINCUBATION",inactive; negative
same,mutagenic call,[3],inactive; negative
same,mutagenic call,"Test System: AMES SALMONELLA TYPHIMURIUM, Strain/Indicator: TA1535, Metabolic Activation: RAT, LIVER, S-9, AROCLOR 1254 (10%), Method: PREINCUBATION",inactive; negative
same,mutagenic call,"Test System: AMES SALMONELLA TYPHIMURIUM, Strain/Indicator: TA1537, Metabolic Activation: HAMSTER, LIVER, S-9, AROCLOR 1254 (10%), Method: PREINCUBATION",inactive; negative
same,mutagenic call,"Test System: AMES SALMONELLA TYPHIMURIUM, Strain/Indicator: TA1537, Metabolic Activation: NONE, Method: PREINCUBATION",inactive; negative
same,mutagenic call,"Test System: AMES SALMONELLA TYPHIMURIUM, Strain/Indicator: TA1537, Metabolic Activation: RAT, LIVER, S-9, AROCLOR 1254 (10%), Method: PREINCUBATION",inactive; negative
[Co],mutagenic call,"End Point: IN VITRO MICRONUCLEUS, Test System: HUMAN LYMPHOCYTES, Metabolic Activation: NONE",active; positive
same,mutagenic call,[4],active; positive
same,mutagenic call,"Test System: AMES SALMONELLA TYPHIMURIUM, Strain/Indicator: TA98, Metabolic Activation: RAT, LIVER, S-9, PHENOBARBITAL, Method: STANDARD PLATE",inactive; negative
same,mutagenic call,"Test System: AMES SALMONELLA TYPHIMURIUM, Strain/Indicator: TA102, Metabolic Activation: NONE, Method: STANDARD PLATE",inactive; negative
same,mutagenic call,"Test System: AMES SALMONELLA TYPHIMURIUM, Strain/Indicator: TA102, Metabolic Activation: RAT, LIVER, S-9, PHENOBARBITAL, Method: STANDARD PLATE",inactive; negative
same,mutagenic call,[5],inactive; negative
same,mutagenic call,"Test System: AMES SALMONELLA TYPHIMURIUM, Strain/Indicator: TA1535, Metabolic Activation: RAT, LIVER, S-9, PHENOBARBITAL, Method: STANDARD PLATE",inactive; negative
same,mutagenic call,[6],active; positive
same,mutagenic call,"Test System: AMES SALMONELLA TYPHIMURIUM, Strain/Indicator: TA1537, Metabolic Activation: RAT, LIVER, S-9, PHENOBARBITAL, Method: STANDARD PLATE",inactive; negative
O=C(O)/C=C\Cl,mutagenic call,"Test System: AMES SALMONELLA TYPHIMURIUM, Strain/Indicator: TA97, Metabolic Activation: RAT, LIVER, S-9, PCB, Method: STANDARD PLATE",active; positive
same,mutagenic call,"Test System: AMES SALMONELLA TYPHIMURIUM, Strain/Indicator: TA102, Metabolic Activation: RAT, LIVER, S-9, PCB, Method: STANDARD PLATE",active; positive
CC1(C)C2CCC3(CO3)C1C2 (stereo not drawn),mutagenic call,[7],inactive; negative
same,mutagenic call,[5],inactive; negative
CCCCNN,mutagenic call,"Test System: AMES SALMONELLA TYPHIMURIUM, Strain/Indicator: TA100, Metabolic Activation: NONE, Method: PREINCUBATION (11 HR GROWTH PERIOD FOR BACTERIA)",active; positive
same,mutagenic call,"Test System: AMES SALMONELLA TYPHIMURIUM, Strain/Indicator: TA100, Metabolic Activation: RAT, LIVER, S-9, PCB, Method: PREINCUBATION (11 HR GROWTH PERIOD FOR BACTERIA)",inactive; negative
same,mutagenic call,"Test System: AMES SALMONELLA TYPHIMURIUM, Strain/Indicator: TA102, Metabolic Activation: NONE, Method: PREINCUBATION (5 OR 7 HR GROWTH PERIOD FOR BACTERIA)",active; positive
same,mutagenic call,"Test System: AMES SALMONELLA TYPHIMURIUM, Strain/Indicator: TA102, Metabolic Activation: RAT, LIVER, S-9, PCB, Method: PREINCUBATION (5 HR GROWTH PERIOD FOR BACTERIA)",inactive; negative
same,mutagenic call,"Test System: AMES SALMONELLA TYPHIMURIUM, Strain/Indicator: TA102, Metabolic Activation: RAT, LIVER, S-9, PCB, Method: PREINCUBATION (7 HR GROWTH PERIOD FOR BACTERIA)",active; positive
Nc1cc2c(O)c(N=Nc3ccc(N=Nc4ccc(S(=O)(=O)O)cc4)c4ccc(S(=O)O)cc34)c(S(=O)(=O)O)cc2cc1S(=O)(=O)O,mutagenic call,[4],inactive; negative
same,mutagenic call,"Test System: AMES SALMONELLA TYPHIMURIUM, Strain/Indicator: TA98, Metabolic Activation: RAT, LIVER, S-9, AROCLOR 1254, Method: STANDARD PLATE",inactive; negative
same,mutagenic call,[7],inactive; negative
same,mutagenic call,"Test System: AMES SALMONELLA TYPHIMURIUM, Strain/Indicator: TA100, Metabolic Activation: RAT, LIVER, S-9, AROCLOR 1254, Method: STANDARD PLATE",inactive; negative
same,mutagenic call,[5],inactive; negative
same,mutagenic call,"Test System: AMES SALMONELLA TYPHIMURIUM, Strain/Indicator: TA1535, Metabolic Activation: RAT, LIVER, S-9, AROCLOR 1254, Method: STANDARD PLATE",inactive; negative
same,mutagenic call,[6],inactive; negative
same,mutagenic call,"Test System: AMES SALMONELLA TYPHIMURIUM, Strain/Indicator: TA1537, Metabolic Activation: RAT, LIVER, S-9, AROCLOR 1254, Method: STANDARD PLATE",inactive; negative
same,mutagenic call,"Test System: AMES SALMONELLA TYPHIMURIUM, Strain/Indicator: TA1538, Metabolic Activation: NONE, Method: STANDARD PLATE",inactive; negative
same,mutagenic call,"Test System: AMES SALMONELLA TYPHIMURIUM, Strain/Indicator: TA1538, Metabolic Activation: RAT, LIVER, S-9, AROCLOR 1254, Method: STANDARD PLATE",inactive; negative
Nc1cccc(N)n1,mutagenic call,[1],inactive; negative
same,mutagenic call,"Test System: AMES SALMONELLA TYPHIMURIUM, Strain/Indicator: TA98, Metabolic Activation: RAT, LIVER, S-9, PCB, Method: PREINCUBATION",active; positive
same,mutagenic call,"Test System: AMES SALMONELLA TYPHIMURIUM, Strain/Indicator: TA98, Metabolic Activation: RAT, LIVER, S-9, PHENOBARBITAL AND BETA-NAPHTHOFLAVONE, Method: PREINCUBATION",inactive; negative
same,mutagenic call,[2],inactive; negative
same,mutagenic call,"Test System: AMES SALMONELLA TYPHIMURIUM, Strain/Indicator: TA100, Metabolic Activation: RAT, LIVER, S-9, PCB, Method: PREINCUBATION",inactive; negative
same,mutagenic call,"Test System: AMES SALMONELLA TYPHIMURIUM, Strain/Indicator: TA100, Metabolic Activation: RAT, LIVER, S-9, PHENOBARBITAL AND BETA-NAPHTHOFLAVONE, Method: PREINCUBATION",inactive; negative
same,mutagenic call,[3],inactive; negative
same,mutagenic call,"Test System: AMES SALMONELLA TYPHIMURIUM, Strain/Indicator: TA1535, Metabolic Activation: RAT, LIVER, S-9, PHENOBARBITAL AND BETA-NAPHTHOFLAVONE, Method: PREINCUBATION",inactive; negative
same,mutagenic call,"Test System: AMES SALMONELLA TYPHIMURIUM, Strain/Indicator: TA1537, Metabolic Activation: RAT, LIVER, S-9, PHENOBARBITAL AND BETA-NAPHTHOFLAVONE, Method: PREINCUBATION",active; positive
same,mutagenic call,"Test System: E. COLI, Strain/Indicator: WP2UVRA, Metabolic Activation: NONE, Method: PREINCUBATION",inactive; negative
same,mutagenic call,"Test System: E. COLI, Strain/Indicator: WP2UVRA, Metabolic Activation: RAT, LIVER, S-9, PHENOBARBITAL AND BETA-NAPHTHOFLAVONE, Method: PREINCUBATION",inactive; negative
Fc1cc(F)c2ncccc2c1F,mutagenic call,"Test System: AMES SALMONELLA TYPHIMURIUM, Strain/Indicator: TA100, Metabolic Activation: RAT LIVER S-9, PHENOBARBITAL AND 5,6-BENZOFLAVONE, Method: PREINCUBATION",active; positive
Nc1nc(N)nc(-c2ccc([N+](=O)[O-])o2)n1,mutagenic call,"Test System: AMES SALMONELLA TYPHIMURIUM, Strain/Indicator: TA100, Metabolic Activation: RAT, LIVER, S-9, KC500 OR PHENOBARBITAL, Method: LIQUID SUSPENSION",active; positive
